The pEC50 is the negative decadic logarithm of the EC50, by convention in mol/L.

pEC50: −log10 of the molar value.

The assay has as its target T1, Complement component 3a receptor 1, isoform CRA_a (Homo sapiens, UniProt A8K2H7).
T1 sequence (A8K2H7 whole entry): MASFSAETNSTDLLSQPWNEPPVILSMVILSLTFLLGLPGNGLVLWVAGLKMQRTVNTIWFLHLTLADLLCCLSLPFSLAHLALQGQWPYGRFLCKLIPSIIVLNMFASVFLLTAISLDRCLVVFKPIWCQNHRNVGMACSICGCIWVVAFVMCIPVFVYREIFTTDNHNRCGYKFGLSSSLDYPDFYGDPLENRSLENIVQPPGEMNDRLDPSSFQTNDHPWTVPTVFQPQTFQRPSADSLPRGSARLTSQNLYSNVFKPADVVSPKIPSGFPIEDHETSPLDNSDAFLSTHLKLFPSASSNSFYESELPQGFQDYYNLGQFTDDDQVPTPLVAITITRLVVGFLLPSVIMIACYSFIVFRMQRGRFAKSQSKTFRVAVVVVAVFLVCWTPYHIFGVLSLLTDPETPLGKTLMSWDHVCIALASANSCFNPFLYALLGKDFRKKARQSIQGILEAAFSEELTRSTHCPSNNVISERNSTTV
Description: Agonist activity at human C3AR1 expressed in […] by FLIPR assay. Format: functional, cell-based.
`CCCCc1nc2cccc(CCCl)c2n1Cc1ccc(-c2ccccc2C(=O)O)cc1`: the negative logarithm of the EC50 (pEC50) is 6.51.

In turn, `CCCCn1c(Cc2ccccc2)nc2cc(/C(=C/C(=O)O)c3ccccc3)ccc21` had a negative-log EC50 (pEC50) of 8.57.

`CCCc1nc(Br)c(S(C)(=O)=O)n1Cc1ccc(-c2ccccc2-c2nn[nH]n2)cc1` gave a pEC50 of 8.70.

Consider `CCCCc1cn(Cc2ccc(-c3ccccc3C(=O)O)cc2)c2cccc(SC)c2c1=O`, for which the pEC50 was 6.28.

Values taken from ChEMBL document CHEMBL1138486, “Sequence-derived three-dimensional pharmacophore models for G-protein-coupled receptors and their application in virtual screening” (J Med Chem, 2009).
